{"source": "patent US9125930B2", "about": "“EGFR aptamer inhibitor for use in therapy and diagnosis” (CONSIGLIO NAZIONALE DELLE RICERCHE, priority 2010, dated 2015)", "key": {"caspase-3": {"tested_on": "caspase-3", "assay": "Caspase-3 in A549 xenograft tumor lysates", "format": "in vivo, mouse", "conditions": "pooled tumor lysates", "procedure": "FIG. 8. (A) A549 cells (2,000 cells/well in 24-well plates) were treated for 24 h or 48 h with CL4 42-81 or CL4 scrambled (200 nM-final concentration) and proliferation was determined by [^3H]-thymidine incorporation. Vertical bars indicate the standard deviation values. […] Day 0 marks the first day of injection. Data are shown as means±s.e.m. (n=8 tumors). (C) Three tumors per group selected randomly were excised, lysed, and the pooled lysates were immunoblotted with anti-pEGFR, anti-EGFR, anti-caspase-3, anti-cleaved caspase-8 and anti-αtubulin antibodies, as indicated. Molecular weights of indicated proteins are reported. (D) Cell lysates as in (C) were analyzed by caspase-3 fluorimetric assays.\nAthymic CD-1 nude mice (nu/nu) were housed in a highly controlled microbiological environment, thus to guarantee specific pathogen free conditions. Mice were injected subcutaneously with 3×10^6 (in 100 μl) in vitro propagated A549. Sixteen non-necrotic tumors of about 0.5 cm in diameter were randomly divided into two groups of eight mice as follows: group 1, CL4 scrambled-treated; group 2, CL4 42-81-treated. Aptamers (200 pmols/injection) were injected intra-tumorally in 100-1 μl volumes three times a week for 16 days. Tumors were measured every 2 days."}, "A549 cells": {"tested_on": "A549 cells", "assay": "[3H]-thymidine incorporation assay", "format": "cell-based, human", "conditions": "A549, 200 nM final concentration, 24 and 48 h", "procedure": "A549 cells were treated for 24 h or 48 h with CL4 42-81 or CL4 scrambled. During the final 6 h, cells were pulsed with 1 μCi/ml [^3H]-thymidine (45 Ci/mmol) (Amersham-Pharmacia Biosciences) added in complete growth medium and incubated at 37° C. At the end of each pulse, cells were harvested and [^3H]-thymidine incorporation was analyzed by a Beckman LS 1701 Liquid Scintillation Counter."}, "[1]": {"tested_on": "A549 cells transfected with a specific EGFR shRNA", "assay": "Binding on A549 cells after EGFR gene silencing", "design": "species or system human", "conditions": "[32P]-labeled aptamer at 100 nM, relative to scrambled aptamer", "procedure": "EGFR gene silencing in NSCLC A549 cells was established by transfection of high performance short hairpin RNA (shRNA) specifically targeting EGFR (from Expression Arrest™ Human shRNA Collection, Open Biosystems, Huntsville, Ala.). Cells (3.5×10^5 cells per 6 cm plate) were grown and overlaid with the transfection mixtures containing the shRNA (6 μg) against EGFR (referred as shRNAEGFR) and Lipofectamine 2000 (Invitrogen, Carlsbad, Calif.) in Opti-MEM I reduced serum medium (Invitrogen). After 5 hours incubation, complete culture medium was added to the cells and incubation was prolonged up to 72 hs. […] For binding assays transfected cells were plated in 24 well plates after 24 hs from transfection.\nBinding experiments were performed with 5′-[^32P]-labeled RNA. […]\nFor binding experiments on cells, 3.5×10^4 cells were plated in 24-well plates in triplicate and were incubated with CL4 42-81 aptamer the scrambled sequence used as a negative control at 100 nM concentration in 200 μl of DMEM serum free for 20 min at RT in the presence of 100 μg/ml polyinosine as a nonspecific competitor (Sigma, St. Louis, Mo.). After five washings with 500 μl DMEM, bound sequences were recovered in 300 μl of SDS 1%, and the amount of radioactivity recovered was counted."}, "Calu1": {"tested_on": "Calu1", "assay": "Cell viability assay, Calu1 cells", "format": "cell-based, human", "conditions": "200 nM-final concentration; not shown", "procedure": "Cell viability was assessed with CellTiter 96® AQueous One Solution Cell Proliferation Assay (Promega, Madison, Wis.) according to according to the supplier's instructions. Cells (4×10^3 cells/well) were plated in 96-well plates in triplicate. and were treated for 24 hs with heat denatured CL4 42-81 or the scrambled aptamer at 3 μM concentration. RNA concentrations were determined to ensure the continuous presence of a concentration of at least 200 nM, which takes into account the 6 hs-half life of the aptamer in 10% serum. The optical density (OD) was measured using a Multilabel Counter (Bio-Rad) at a wavelength of 490 nm and cell viability was calculated by the following formula: Cell viability (%)=(OD treated cells/OD control cells)×100%. FACS Analysis"}, "A431 tumors": {"tested_on": "A431 tumors", "assay": "Tumor growth in A431 mouse xenograft", "format": "in vivo", "conditions": "200 pmoles intratumoral", "procedure": "Athymic nude mice (nu/nu) were maintained in a sterile environment according to guidelines for Animal Care. Mice were inoculated with either 3×10^6 (in 100 μl) in vitro propagated A431 cells subcutaneously injected into each flank. Approximately 24 non-necrotic tumors for each tumor type, of about 1 cm in diameter, were randomly divided into three groups of eight mice per treatment group as follows: group 1, no treatment; group 2, treated with scrambled RNA as a negative control (200 pmols/injection); group 3, treated with CL4 42-81 (200 pmols/injection). Compounds were injected intra-tumorally in 100-1 μl volumes three times a week for two weeks. Day 0 marks the first day of injection. The aptamers may also be administered systemically, in particular when optimized by addition of polyethylene glycol (PEG).\nThe volume injections are small enough to preclude the compounds being forced inside the cells due to a nonspecific high-pressure injection. Tumors were measured every 3 days with calipers in three dimensions. The following formula was used to calculate tumor volume: VT=(W×L×H)×0.5236 (W, the shortest dimension; L, the longest dimension; H, the intermediate dimension). The growth curves are plotted as the means tumor volume±s.e.m. Statistical analysis of tumor size data was conducted using a one-way ANOVA. A P-value of 0.05 or less was considered to indicate a significant difference. […]"}}, "data": [{"substance": "CL4 42-81: 2′-fluoropyrimidine nuclease-resistant RNA aptamer of 39 nt: 5′ GCCUUAGUAACGUGCUUUGAUGUCGAUUCGACAGGAGGC 3′ (SEQ ID No. 1) (2'-fluoro at CU, RNA at AG, backbone not given here)", "values": [{"measurement": "caspase-3 activation in xenograft tumors", "setting": "caspase-3", "result": "activates"}, {"measurement": "[3H]-thymidine incorporation", "setting": "A549 cells", "result": "completely blocks"}, {"measurement": "ability to bind to A549 cells upon decreased EGFR expression", "setting": "[1]", "result": "significantly reduced"}, {"measurement": "sensitivity of Calu1 cell viability", "setting": "Calu1", "result": "same effect"}, {"measurement": "tumor growth from day 9 to day 15", "setting": "A431 tumors; three times a week", "result": "stopped to grow and was reduced in volume"}, {"measurement": "tumor volume", "setting": "A431 tumors; three times a week for two weeks", "result": "pronounced reduction in tumor volume"}]}]}
